Measurements reported in ChEMBL document CHEMBL4811299, “Discovery of a novel class of heteroaryl-pyrrolidinones as positive allosteric modulators of the muscarinic acetylcholine receptor M1” (Bioorg Med Chem Lett, 2021).

Tests used:
[1] = target: T1, Muscarinic acetylcholine receptor M1 (Homo sapiens, UniProt P11229); test: Positive allosteric modulation of human muscarinic acetylcholine M1 receptor expressed in CHO cells in presence of acetylcholine at EC20 concentration by calcium mobilization assay; assay type: functional, cell-based
T1 sequence (P11229 whole entry): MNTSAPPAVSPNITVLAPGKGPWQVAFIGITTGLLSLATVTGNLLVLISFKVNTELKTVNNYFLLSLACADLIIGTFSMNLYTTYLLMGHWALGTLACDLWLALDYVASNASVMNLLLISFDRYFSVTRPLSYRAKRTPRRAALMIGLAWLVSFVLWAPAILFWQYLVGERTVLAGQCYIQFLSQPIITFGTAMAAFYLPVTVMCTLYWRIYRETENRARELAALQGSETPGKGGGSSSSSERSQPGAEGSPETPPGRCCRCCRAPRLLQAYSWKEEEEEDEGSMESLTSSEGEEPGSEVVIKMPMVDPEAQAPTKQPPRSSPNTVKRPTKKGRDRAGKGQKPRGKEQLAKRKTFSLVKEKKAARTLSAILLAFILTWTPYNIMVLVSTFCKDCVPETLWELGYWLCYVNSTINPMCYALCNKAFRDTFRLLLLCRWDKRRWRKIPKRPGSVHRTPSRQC

[2] = target: T2, Muscarinic acetylcholine receptor M1 (Homo sapiens) (UniProt P11229); test: Positive allosteric modulation of human muscarinic acetylcholine M1 receptor expressed in CHO cells in presence of acetylcholine at EC20 concentration by calcium mobilization assay relative to acetylcholine; assay type: functional, cell-based; details: time 3.5 min
T2 sequence (whole entry): T1 sequence (P11229 whole entry)

[3] = target: T3, Muscarinic acetylcholine receptor M2 (Homo sapiens, UniProt P08172); test: Positive allosteric modulation of human muscarinic acetylcholine M2/Gqi5 receptor expressed in CHO cells in presence of acetylcholine at EC20 concentration by calcium mobilization assay; assay type: functional, cell-based
T3 sequence (P08172 whole entry): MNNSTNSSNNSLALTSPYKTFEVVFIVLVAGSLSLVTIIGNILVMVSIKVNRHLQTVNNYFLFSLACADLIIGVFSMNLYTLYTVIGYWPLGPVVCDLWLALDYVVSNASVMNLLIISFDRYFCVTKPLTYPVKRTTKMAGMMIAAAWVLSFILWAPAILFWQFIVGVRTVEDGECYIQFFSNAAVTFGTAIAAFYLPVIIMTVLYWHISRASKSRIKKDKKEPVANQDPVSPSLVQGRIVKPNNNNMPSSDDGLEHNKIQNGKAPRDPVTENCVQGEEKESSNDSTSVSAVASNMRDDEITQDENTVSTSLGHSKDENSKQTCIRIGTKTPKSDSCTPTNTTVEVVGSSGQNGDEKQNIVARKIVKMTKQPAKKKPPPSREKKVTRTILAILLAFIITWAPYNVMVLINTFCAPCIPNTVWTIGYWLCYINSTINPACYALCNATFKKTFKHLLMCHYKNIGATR

[4] = target: Muscarinic acetylcholine receptor M3 (Homo sapiens, UniProt P20309); test: Positive allosteric modulation of human muscarinic acetylcholine M3 receptor expressed in CHO cells in presence of acetylcholine at EC20 concentration by calcium mobilization assay; assay type: functional, cell-based
[5] = target: T4, Muscarinic acetylcholine receptor M5 (Homo sapiens, UniProt P08912); test: Positive allosteric modulation of human muscarinic acetylcholine M5 receptor expressed in CHO cells in presence of acetylcholine at EC20 concentration by calcium mobilization assay; assay type: functional, cell-based
T4 sequence (P08912 whole entry): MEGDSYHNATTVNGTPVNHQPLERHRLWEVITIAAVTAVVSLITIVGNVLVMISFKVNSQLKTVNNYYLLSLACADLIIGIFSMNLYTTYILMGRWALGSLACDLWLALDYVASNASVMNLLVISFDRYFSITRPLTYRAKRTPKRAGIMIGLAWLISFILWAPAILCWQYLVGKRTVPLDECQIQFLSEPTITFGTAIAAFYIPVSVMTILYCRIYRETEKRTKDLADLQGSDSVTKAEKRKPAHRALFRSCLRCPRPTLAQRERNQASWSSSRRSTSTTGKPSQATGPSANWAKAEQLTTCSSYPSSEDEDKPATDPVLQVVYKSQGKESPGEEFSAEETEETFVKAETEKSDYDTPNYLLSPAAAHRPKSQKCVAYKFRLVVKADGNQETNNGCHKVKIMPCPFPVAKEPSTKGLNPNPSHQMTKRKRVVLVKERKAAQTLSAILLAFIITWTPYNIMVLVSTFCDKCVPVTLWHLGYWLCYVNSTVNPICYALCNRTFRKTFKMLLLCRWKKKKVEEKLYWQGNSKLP

[6] = Protein binding in rat plasma assessed as unbound fraction measured after 4 hrs by equilibrium dialysis assay; assay type: ADME, cell-free
[7] = Protein binding in rat brain assessed as unbound fraction measured after 4 hrs by equilibrium dialysis assay; assay type: ADME, tissue-based
[8] = Protein binding in human plasma assessed as unbound fraction measured after 4 hrs by equilibrium dialysis assay; assay type: ADME, cell-free
[9] = Brain to plasma partition coefficient, Kp of the compound in rat at 0.20 mg/kg, iv administered as cassette dose measured at 0.25 hrs; assay type: ADME, organism-based; details: 0.2 mg/kg
[10] = Unbound brain-to-plasma concentration ratio of the compound in rat at 0.20 mg/kg, iv administered as cassette dose measured at 0.25 hrs; assay type: ADME, organism-based; details: 0.2 mg/kg
[11] = filed as positive allosteric modulator

Chain of Muscarinic acetylcholine receptor M3 (P20309 whole entry): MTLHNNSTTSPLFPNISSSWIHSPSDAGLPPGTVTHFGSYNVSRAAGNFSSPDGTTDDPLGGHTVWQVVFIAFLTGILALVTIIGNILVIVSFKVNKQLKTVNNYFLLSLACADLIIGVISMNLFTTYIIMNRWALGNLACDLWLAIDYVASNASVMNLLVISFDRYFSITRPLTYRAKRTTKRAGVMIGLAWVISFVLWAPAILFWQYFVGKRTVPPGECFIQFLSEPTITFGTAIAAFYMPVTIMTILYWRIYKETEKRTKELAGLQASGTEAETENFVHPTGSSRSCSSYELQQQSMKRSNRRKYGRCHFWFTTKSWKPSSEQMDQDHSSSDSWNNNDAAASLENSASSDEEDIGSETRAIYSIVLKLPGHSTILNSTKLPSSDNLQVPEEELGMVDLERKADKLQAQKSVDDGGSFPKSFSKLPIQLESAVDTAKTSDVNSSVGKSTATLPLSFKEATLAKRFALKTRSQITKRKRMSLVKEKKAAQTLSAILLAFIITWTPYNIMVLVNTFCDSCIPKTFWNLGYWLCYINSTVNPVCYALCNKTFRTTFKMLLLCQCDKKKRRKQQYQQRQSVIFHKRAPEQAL

SMILES | EC50 [1] [µM] | Emax [2, 11] [%] | further results
Cn1cc2c(-c3cc(F)c(CN4Cc5nc[nH]c5C4=O)c(F)c3)cccc2n1 | > 10 | – | –
Cn1cc(-c2ccc(CN3Cc4ccsc4C3=O)c(F)c2)cn1 | – | 67 | –
O=C1c2scnc2CN1Cc1c(F)cc(-c2ccc3ncccc3c2)cc1F | 8 | – | Emax [2]: 30%
Cn1cc2cc(-c3ccc(CN4Cc5sccc5C4=O)c(F)c3)ccc2n1 | – | 51 | –
Cn1cc2c(-c3cc(F)c(CN4Cc5ocnc5C4=O)c(F)c3)cccc2n1 | > 10 | – | –
Cn1cc2cc(-c3ccc(CN4Cc5ncsc5C4=O)c(F)c3)ccc2n1 | 2 | 60 | EC50 [3]: > 10 µM; EC50 [4]: > 10 µM; EC50 [5]: > 10 µM; Kp [9]: 2.1; K(p,uu,brain) [10]: 2.2; Fu [6]: 0.04; Fu [7]: 0.042; Fu [8]: 0.05
Cn1cc2c(-c3ccc(CN4Cc5sccc5C4=O)c(F)c3)cccc2n1 | – | 67 | –
Cn1cc2c(-c3cc(F)c(CN4Cc5ccsc5C4=O)c(F)c3)cccc2n1 | 2.16 | 66 | –
Cn1cc2cc(-c3cc(F)c(CN4Cc5occc5C4=O)c(F)c3)ccc2n1 | – | 45 | –
Cn1cc2cc(-c3cc(F)c(CN4Cc5ccsc5C4=O)c(F)c3)ccc2n1 | – | 40 | –
Cn1cc2c(-c3cc(F)c(CN4Cc5sccc5C4=O)c(F)c3)cccc2n1 | 1.92 | 75 | –
Cn1cc2cc(-c3cc(F)c(CN4Cc5sccc5C4=O)c(F)c3)ccc2n1 | – | 59 | –
Cn1cnc2ccc(-c3cc(F)c(CN4Cc5sccc5C4=O)c(F)c3)cc21 | – | 60 | –

Now from value to compound, other results behind:

EC50 [1] [µM] | Emax [2, 11] [%] | SMILES | further results
0.739 | 87 | Cn1cc2c(-c3cc(F)c(CN4Cc5cnn(CCN6CCCC6)c5C4=O)c(F)c3)cccc2n1 | –
– | 56 | Cn1cc2c(-c3cc(F)c(CN4Cc5ccn(CCN6CCCC6)c5C4=O)c(F)c3)cccc2n1 | –
1.12 | 85 | Cn1cc2c(-c3cc(F)c(CN4Cc5cnn(CC6CCCO6)c5C4=O)c(F)c3)cccc2n1 (configuration not stated) | EC50 [3]: > 10 µM; EC50 [4]: > 10 µM; EC50 [5]: > 10 µM; Fu [6]: 0.027; Fu [7]: 0.019; Fu [8]: 0.025
– | 57 | Cn1cc2c(-c3cc(F)c(CN4Cc5cn(CCN6CCCC6)nc5C4=O)c(F)c3)cccc2n1 | –
– | 67 | Cn1cc2c(-c3cc(F)c(CN4Cc5ccn(CCCO)c5C4=O)c(F)c3)cccc2n1 | –
1.51 | 84 | Cn1cc2c(-c3cc(F)c(CN4Cc5cnn(CCO)c5C4=O)c(F)c3)cccc2n1 | –
– | 77 | Cc1nn(C)cc1-c1cc(F)c(CN2Cc3cnn(CC4CCCO4)c3C2=O)c(F)c1 (configuration not stated) | –
3.93 | 84 | COCCn1ncc2c1C(=O)N(Cc1c(F)cc(-c3cccc4nn(C)cc34)cc1F)C2 | –
> 10 | – | Cc1[nH]cc2c1C(=O)N(Cc1c(F)cc(-c3cccc4nn(C)cc34)cc1F)C2 | –
1.66 | 79 | Cn1cc2cc(-c3cc(F)c(CN4Cc5cnn(CC6CCCO6)c5C4=O)c(F)c3)ccc2n1 (configuration not stated) | –
3.54 | 61 | Cn1cc2c(-c3cc(F)c(CN4Cc5cn(CC6CCCO6)nc5C4=O)c(F)c3)cccc2n1 (configuration not stated) | –
> 10 | – | Cn1cc2c(-c3cc(F)c(CN4Cc5ncoc5C4=O)c(F)c3)cccc2n1 | –
– | 58 | Cn1cc2c(-c3cc(F)c(CN4Cc5ccn(CC6CCCO6)c5C4=O)c(F)c3)cccc2n1 (configuration not stated) | –
– | 65 | Cc1cc(-c2cc(F)c(CN3Cc4cnn(CC5CCCO5)c4C3=O)c(F)c2)ccn1 (configuration not stated) | –
– | 66 | Cn1cc2cccc(-c3cc(F)c(CN4Cc5cnn(CC6CCCO6)c5C4=O)c(F)c3)c2n1 (configuration not stated) | –
